Test results published in patent publication US12312579B2, “Method for culturing H. pylori for future testing” (BioSherpa, LLC, priority 2019, dated 2025).
≈ marks a conversion by molar mass, not a printed value.

Experiments:
Klebsiella oxytoca = assay: Antibiotic sensitivity (MIC) of Klebsiella oxytoca isolated from sputum, Example 2; type: cell-based; conditions: for Interps / MIC: Klebsiella oxytoca isolate from experimental sputum sample
S. Pneumoniae = assay: Antibiotic sensitivity pattern (MIC) of S. pneumoniae isolated from sputum, Example 1; type: cell-based, Streptococcus pneumoniae; conditions: for Interpretation / MIC: S. pneumoniae isolate from experimental sputum sample; for MIC: unit assumed
From the text: FIG. 5E illustrates the mucoid alpha Streptococcus only on the experimental sample is Streptococcus pneumonia. Streptococcus pneumoniae not isolated using standard methods.
The patient had invasive pneumococcal disease as noted by a positive Streptococcus pneumoniae urine antigen result. This sample is most impressive in that the systems and methods described herein allowed isolation of Streptococcus pneumoniae despite the patient being on ceftriaxone for two days at the time of collection. The isolate is sensitive to ceftriaxone according to the sensitivity pattern. S in the Interpretation column of the tables below indicates sensitivity, and R indicates resistance.

S. aureus [1] = assay: Antibiotic sensitivity (MIC) of S. aureus grown from bone incubated in the transport system, Example 3; type: cell-based, Staphylococcus aureus; conditions: for MIC: unit assumed
Procedure: FIG. 5L illustrates another view of the cultures. […] The sample was incubated for 24 hours at 37 degrees Celsius. […] While not being bound to a specific theory, the native bone may sequester sessile infection in biofilms, especially in relatively devitalized bone associated with vasculopathy. Incubation in mucolytic allows for breakdown of the biofilm and the glycerol broth allows for a nutritive environment to coax these recalcitrant organisms into a cultivable state.

Staphylococcus aureus = assay: Antibiotic sensitivity (MIC) of original blood culture isolate, Example 3; type: cell-based; conditions: Rare Colonies Staphylococcus aureus
Procedure: While not being bound to a specific theory, the native bone may sequester sessile infection in biofilms, especially in relatively devitalized bone associated with vasculopathy. Incubation in mucolytic allows for breakdown of the biofilm and the glycerol broth allows for a nutritive environment to coax these recalcitrant organisms into a cultivable state.

MRSA [2] = assay: Clinical course of intubated patient with MRSA in sputum, Example 4; type: in vivo, human; conditions: one patient, MRSA pneumonia, on ventilator
From the text: (§1) FIG. 5M illustrates the use of systems and methods to isolate MRSA in sputum allowing for faster initiation of anti-MRSA therapy and clinical cure. This patient was intubated for hypoxemia and pneumonia. The patient placed on ceftriaxone and azithromycin. The systems and methods allowed identification of MRSA in the patient's sputum.
FIG. 5N illustrates the yellow colony in the experimental site is obvious. The patient decompensated clinically to the point of near death until proper MRSA antibiotic therapy was initiated. Hypoxemia worsened and oxygen requirements increased prior to MRSA therapy.

S. aureus [3] = assay: Antibiotic sensitivity (MIC) of 5/14 sputum culture isolate, Example 4; type: cell-based, Staphylococcus aureus; conditions: 5/14 Sputum cx
From the text: (§2) The original culture taken on 5/5 (finalized on 5/7) was identical to a subsequent culture taken on 5/14 that only grew MRSA.

MRSA [4] = assay: Antibiotic sensitivity (MIC) of 5/5 sputum culture isolate, Example 4; type: cell-based, Staphylococcus aureus; conditions: 5/5 Sputum cx, Positive for MRSA
From the text: as §1, §2

[5] = 05 S. aureus, bone incubated 24 hours at 37 degrees Celsius

| Molecule | Interps (Klebsiella oxytoca) | MIC (Klebsiella oxytoca) [µg/mL] | MIC (S. aureus [1]; [5]) [µg/mL] | Interps (Staphylococcus aureus) | MIC (Staphylococcus aureus) [µg/mL] | Interps (S. aureus [3]) | MIC (S. aureus [3]) [µg/mL] | Interps (MRSA [4]) | MIC (MRSA [4]) [µg/mL] | also measured |
| --- | --- | --- | --- | --- | --- | --- | --- | --- | --- | --- |
| CO[C@@]1(NC(=O)Cc2cccs2)C(=O)N2C(C(=O)O)=C(COC(N)=O)CS[C@@H]21 [Cefoxitin] | S | ≤ 8 | – | – | – | – | – | – | – | – |
| Penicillin | – | – | – | – | – | – | – | – | – | Interpretation (S. Pneumoniae): S; MIC (S. Pneumoniae): ≤ 0.03 µg/mL |
| CC1(C)S[C@@H]2[C@H](NC(=O)[C@H](N)c3ccccc3)C(=O)N2[C@H]1C(=O)O [Ampicillin] | R | > 16 | – | – | – | – | – | – | – | – |
| CO/N=C(\C(=O)N[C@@H]1C(=O)N2C(C(=O)O)=C(CSc3nc(=O)c(=O)[nH]n3C)CS[C@H]12)c1csc(N)n1 [Ceftriaxone] | S | ≤ 1 | – | – | – | – | – | – | – | sensitivity of the isolate according to the sensitivity pattern (S. Pneumoniae): sensitive; Interpretation (S. Pneumoniae): S; MIC (S. Pneumoniae): ≤ 0.25 µg/mL; sensitivity of the organism (Klebsiella oxytoca): sensitive |
| CCCCCCCCCC(=O)N[C@@H](Cc1c[nH]c2ccccc12)C(=O)N[C@H](CC(N)=O)C(=O)N[C@@H](CC(=O)O)C(=O)N[C@@H]1C(=O)NCC(=O)N[C@@H](CCCN)C(=O)N[C@@H](CC(=O)O)C(=O)N[C@H](C)C(=O)N[C@@H](CC(=O)O)C(=O)NCC(=O)N[C@H](CO)C(=O)N[C@@H]([C@H](C)CC(=O)O)C(=O)N[C@@H](CC(=O)c2ccccc2N)C(=O)O[C@@H]1C [Daptomycin] | – | – | 0.5 (≈ 0.309 µM) | S | 0.5 (≈ 0.309 µM) | – | – | – | – | Interps (S. aureus [1]; [5]): S |
| CO/N=C(\C(=O)N[C@@H]1C(=O)N2C(C(=O)O)=C(COC(C)=O)CS[C@H]12)c1csc(N)n1 [Cefotaxime] | S | ≤ 2 | – | – | – | – | – | – | – | – |
| CN[C@H](CC(C)C)C(=O)N[C@H]1C(=O)N[C@@H](CC(N)=O)C(=O)N[C@H]2C(=O)N[C@H]3C(=O)N[C@H](C(=O)N[C@H](C(=O)O)c4cc(O)cc(O)c4-c4cc3ccc4O)[C@H](O)c3ccc(c(Cl)c3)Oc3cc2cc(c3O[C@@H]2O[C@H](CO)[C@@H](O)[C@H](O)[C@H]2O[C@H]2C[C@](C)(N)[C@H](O)[C@H](C)O2)Oc2ccc(cc2Cl)[C@H]1O [Vancomycin] | – | – | 1 (≈ 0.69 µM) | S | 1 (≈ 0.69 µM) | S | 2 (≈ 1.38 µM) | S | 2 (≈ 1.38 µM) | clinical outcome of therapy (MRSA [2]): allowed the patient to come off the ventilator; Interpretation (S. Pneumoniae): S; MIC (S. Pneumoniae): 0.25 µg/mL (≈ 0.173 µM); Interps (S. aureus [1]; [5]): S |
| Gentamicin | S | ≤ 1 | ≤ 1 | S | ≤ 1 | S | ≤ 1 | S | ≤ 1 | Interps (S. aureus [1]; [5]): S |
| CO/N=C(\C(=O)N[C@@H]1C(=O)N2C(C(=O)[O-])=C(C[N+]3(C)CCCC3)CS[C@H]12)c1csc(N)n1 [Cefepime] | S | ≤ 2 | – | – | – | – | – | – | – | – |
| Cc1onc(-c2ccccc2)c1C(=O)N[C@@H]1C(=O)N2[C@@H]1SC(C)(C)[C@@H]2C(=O)O [Oxacillin] | – | – | ≤ 0.25 | S | ≤ 0.25 | R | > 2 | R | > 2 | Interps (S. aureus [1]; 24 h): S |
| C[C@H]1COc2c(N3CCN(C)CC3)c(F)cc3c(=O)c(C(=O)O)cn1c23 [Levofloxacin] | S | ≤ 0.25 | – | – | – | – | – | – | – | Interpretation (S. Pneumoniae): S; MIC (S. Pneumoniae): 1 µg/mL (≈ 2.77 µM) |
| Cc1nnc(SCC2=C(C(=O)O)N3C(=O)[C@@H](NC(=O)Cn4cnnn4)[C@H]3SC2)s1 [Cefazolin] | R | 8 (≈ 17.6 µM) | ≤ 4 | S | ≤ 4 | R | 16 (≈ 35.2 µM) | R | 8 (≈ 17.6 µM) | Interps (S. aureus [1]; [5]): S |
| CC[C@H]1OC(=O)[C@H](C)[C@@H](O[C@H]2C[C@@](C)(OC)[C@@H](O)[C@H](C)O2)[C@H](C)[C@@H](O[C@@H]2O[C@H](C)C[C@H](N(C)C)[C@H]2O)[C@](C)(O)C[C@@H](C)CN(C)[C@H](C)[C@@H](O)[C@]1(C)O [azithromycin] | – | – | – | – | – | – | – | – | – | macrolide resistance of the isolate (S. Pneumoniae; inferred from macrolide resistance): resistant |
| C[C@@H](O)[C@H]1C(=O)N2C(C(=O)O)=C(SCCN=CN)C[C@H]12 [Imipenem] | S | ≤ 0.5 | – | – | – | – | – | – | – | – |
| NCC[C@H](O)C(=O)N[C@@H]1C[C@H](N)[C@@H](O[C@H]2O[C@H](CN)[C@@H](O)[C@H](O)[C@H]2O)[C@H](O)[C@H]1O[C@H]1O[C@H](CO)[C@@H](O)[C@H](N)[C@H]1O [Amikacin] | S | ≤ 16 | – | – | – | – | – | – | – | – |
| C[C@@H](O)[C@H]1C(=O)N2C(C(=O)O)=C(S[C@@H]3CN[C@H](C(=O)N(C)C)C3)[C@H](C)[C@H]12 [Meropenem] | S | ≤ 1 | – | – | – | – | – | – | – | – |
| CC[C@H]1OC(=O)[C@H](C)[C@@H](O[C@H]2C[C@@](C)(OC)[C@@H](O)[C@H](C)O2)[C@H](C)[C@@H](O[C@@H]2O[C@H](C)C[C@H](N(C)C)[C@H]2O)[C@](C)(O)C[C@@H](C)C(=O)[C@H](C)[C@@H](O)[C@]1(C)O [Erythromycin] | – | – | – | – | – | – | – | – | – | Interpretation (S. Pneumoniae): R; MIC (S. Pneumoniae): > 0.5 µg/mL |
| CN(C)[C@@H]1C(O)=C(C(N)=O)C(=O)[C@@]2(O)C(O)=C3C(=O)c4c(O)cccc4[C@@](C)(O)[C@H]3C[C@@H]12 [Tetracycline] | S | ≤ 4 | – | R | – | S | ≤ 1 | S | ≤ 1 | Interps (S. aureus [1]; [5]): R |
| CC(=O)NC[C@H]1CN(c2ccc(N3CCOCC3)c(F)c2)C(=O)O1 [Linezolid] | – | – | 2 (≈ 5.93 µM) | S | 2 (≈ 5.93 µM) | S | 2 (≈ 5.93 µM) | S | 2 (≈ 5.93 µM) | clinical outcome of therapy (MRSA [2]): allowed the patient to come off the ventilator; Interps (S. aureus [1]; 24 h): S |
| NC[C@H]1O[C@H](O[C@H]2[C@H](O)[C@@H](O[C@H]3O[C@H](CO)[C@@H](O)[C@H](N)[C@H]3O)[C@H](N)C[C@@H]2N)[C@H](N)C[C@@H]1O [Tobramycin] | S | ≤ 1 | – | – | – | – | – | – | – | – |
| CO[C@H]1/C=C/O[C@@]2(C)Oc3c(C)c(O)c4c(O)c(c(/C=N/N5CCN(C)CC5)c(O)c4c3C2=O)NC(=O)/C(C)=C\C=C\[C@H](C)[C@H](O)[C@@H](C)[C@@H](O)[C@@H](C)[C@H](OC(C)=O)[C@@H]1C [Rifampin] | – | – | ≤ 1 | – | – | S | ≤ 1 | S | ≤ 1 | Interps (S. aureus [1]; 24 h): S |
| O=C(O)c1cn(C2CC2)c2cc(N3CCNCC3)c(F)cc2c1=O [Ciprofloxacin] | S | ≤ 1 | – | – | – | – | – | – | – | – |
| CCC[C@@H]1C[C@@H](C(=O)N[C@@H]([C@H]2O[C@H](SC)[C@H](O)[C@@H](O)[C@H]2O)[C@H](C)Cl)N(C)C1 [Clindamycin] | – | – | ≤ 0.25 | S | ≤ 0.25 | R | > 4 | R | > 4 | Interpretation (S. Pneumoniae): R; MIC (S. Pneumoniae): > 0.5 µg/mL; Interps (S. aureus [1]; [5]): S |
